# Key:
# Format in all cases: in vivo
# [1] = test system: foxtail, giant (giant foxtail, Setaria faberii); assay: Test A pre-/postemergence: foxtail, giant; details: for Foxtail, Giant plant response rating: Postemergence; for Plant response rating, Foxtail, Giant: Preemergence
# Outline: (§1)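 Soil medium was loam blended with sand; treatments pre- and postemergence were applied concurrently, postemergence at one- to two-leaf stage. Approximately ten days in greenhouse preceded visual comparison with untreated controls, scored 0 (no effect) to 100 (complete control).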
# soybean (Glycine max) = assay: Test C pre-/postemergence: soybean
# Outline: (§2)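 Preemergence on seeds in loam/sand, postemergence on 2–18 cm (1–4-leaf) plants in peat-based medium; compounds in non-phytotoxic solvent with surfactant. After 13–15 days in greenhouse, visual rating versus controls, 0 (no effect) to 100 (complete control).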
# [2] = test system: wheat (Triticum aestivum); assay: Test A pre-/postemergence: wheat; details: for Wheat plant response rating: visual rating on 0 to 100 scale (0 no effect, 100 complete control), approximately ten days
# Outline: as §1
# [3] = test system: nightshade (eastern black nightshade, Solanum ptycanthum); assay: Test C pre-/postemergence: nightshade; details: Preemergence
# Outline: as §2
# wild oat (Avena fatua) = assay: Test C pre-/postemergence: wild oat
# Outline: as §2
# [4] = test system: pigweed (Amaranthus retroflexus); assay: Test C pre-/postemergence: pigweed
# Outline: as §2
# [5] = test system: crabgrass, large (large crabgrass, Digitaria sanguinalis); assay: Test A pre-/postemergence: crabgrass, large; details: for Crabgrass, Large plant response rating: Postemergence; for Plant response rating, Crabgrass, Large: Preemergence
# Outline: as §1
# [6] = test system: foxtail, giant (giant foxtail, Setaria faberii); assay: Test C pre-/postemergence: foxtail, giant
# Outline: as §2
# [7] = test system: nutsedge, yellow (yellow nutsedge, Cyperus esculentus); assay: Test C pre-/postemergence: nutsedge, yellow
# Outline: as §2
# [8] = test system: pigweed (Amaranthus retroflexus); assay: Test A pre-/postemergence: pigweed; details: for Pigweed plant response rating: visual rating on 0 to 100 scale (0 no effect, 100 complete control), approximately ten days
# Outline: as §1
# [9] = 125 g ai/ha, 0 to 100 scale, 0 is no effect, 100 is complete control
# [10] = 500 g ai/ha, visual rating on 0 to 100 scale (0 no effect, 100 complete control), approximately ten days
# [11] = 125 g ai/ha, 0 to 100 scale where 0 is no effect and 100 is complete control
# [12] = 500 g ai/ha, 0 to 100 scale (0 no effect, 100 complete control)
# [13] = Postemergence, 31 g ai/ha, scale 0 to 100 (0 no effect, 100 complete control)
# [14] = Postemergence, 62 g ai/ha, scale 0 to 100 (0 no effect, 100 complete control)
# [15] = Postemergence, 125 g ai/ha, scale 0 to 100, 0 no effect, 100 complete control
# [16] = Postemergence, 250 g ai/ha, scale 0 to 100
# [17] = Preemergence, 31 g ai/ha, scale of 0 to 100, 0 is no effect, 100 is complete control
# [18] = Preemergence, 62 g ai/ha, scale of 0 to 100, 0 is no effect, 100 is complete control
# [19] = Preemergence, 250 g ai/ha, scale 0 to 100, 0 no effect, 100 complete control
# [20] = Postemergence, 125 g ai/ha, 0 to 100 scale, 0 is no effect, 100 is complete control
# [21] = Preemergence, 125 g ai/ha, 0 to 100 scale where 0 is no effect and 100 is complete control
# [22] = Preemergence, 500 g ai/ha, 0 to 100 scale (0 no effect, 100 complete control)
# [23] = 62 g ai/ha, scale of 0 to 100, 0 is no effect, 100 is complete control
# [24] = 125 g ai/ha, scale 0 to 100, 0 no effect, 100 complete control
# [25] = 250 g ai/ha, scale 0 to 100, 0 no effect, 100 complete control
# [26] = Preemergence, 125 g ai/ha, scale 0 to 100, 0 no effect, 100 complete control
compound,measurement,setting,value
COc1nn(-c2ccc(C(F)(F)F)cc2)nc1Cc1ccnc(C(F)F)c1 [Compound 138],"Foxtail, Giant plant response rating",[1]; [9],90
same,"Foxtail, Giant plant response rating",[1]; [10],90
same,"Plant response rating, Foxtail, Giant",[1]; [11],100
same,"Plant response rating, Foxtail, Giant",[1]; [12],100
same,"Plant response rating, Soybean",soybean (Glycine max); [13],55
same,"Plant response rating, Soybean",soybean (Glycine max); [14],70
same,"Plant response rating, Soybean",soybean (Glycine max); [15],80
same,"Plant response rating, Soybean",soybean (Glycine max); [16],80
same,"Plant response rating, Soybean",soybean (Glycine max); [17],5
same,"Plant response rating, Soybean",soybean (Glycine max); [18],20
same,"Plant response rating, Soybean",soybean (Glycine max); [19],30
same,"Plant response rating, Wheat",[2]; [20],50
same,Wheat plant response rating,"[2]; Postemergence, 500 g ai/ha",60
same,"Plant response rating, Wheat",[2]; [21],30
same,"Plant response rating, Wheat",[2]; [22],60
same,"Plant response rating, Nightshade","[3]; 31 g ai/ha, scale of 0 to 100, 0 is no effect, 100 is complete control",90
same,"Plant response rating, Nightshade",[3]; [23],95
same,"Plant response rating, Nightshade",[3]; [24],98
same,"Plant response rating, Nightshade",[3]; [25],98
same,"Plant response rating, Oat, Wild",wild oat (Avena fatua); [13],55
same,"Plant response rating, Oat, Wild",wild oat (Avena fatua); [14],60
same,"Plant response rating, Oat, Wild",wild oat (Avena fatua); [15],80
same,"Plant response rating, Oat, Wild",wild oat (Avena fatua); [16],98
same,"Plant response rating, Oat, Wild",wild oat (Avena fatua); [17],80
same,"Plant response rating, Oat, Wild",wild oat (Avena fatua); [18],85
same,"Plant response rating, Oat, Wild",wild oat (Avena fatua); [26],95
same,"Plant response rating, Oat, Wild",wild oat (Avena fatua); [19],95
same,"Plant response rating, Pigweed",[4]; [13],98
same,"Plant response rating, Pigweed",[4]; [14],98
same,"Plant response rating, Pigweed",[4]; [15],98
same,"Plant response rating, Pigweed",[4]; [16],100
same,"Plant response rating, Pigweed",[4]; [17],98
same,"Plant response rating, Pigweed",[4]; [18],100
same,"Plant response rating, Pigweed",[4]; [26],100
same,"Plant response rating, Pigweed",[4]; [19],100
same,"Crabgrass, Large plant response rating",[5]; [9],90
same,"Crabgrass, Large plant response rating",[5]; [10],90
same,"Plant response rating, Crabgrass, Large",[5]; [11],90
same,"Plant response rating, Crabgrass, Large",[5]; [12],90
same,"Plant response rating, Foxtail, Giant",[6]; [13],20
same,"Plant response rating, Foxtail, Giant",[6]; [14],55
same,"Plant response rating, Foxtail, Giant",[6]; [15],55
same,"Plant response rating, Foxtail, Giant",[6]; [16],95
same,"Plant response rating, Foxtail, Giant",[6]; [17],98
same,"Plant response rating, Foxtail, Giant",[6]; [18],100
same,"Plant response rating, Foxtail, Giant",[6]; [26],100
same,"Plant response rating, Foxtail, Giant",[6]; [19],100
same,"Plant response rating, Nutsedge, Yellow",[7]; [13],10
same,"Plant response rating, Nutsedge, Yellow",[7]; [14],10
same,"Plant response rating, Nutsedge, Yellow",[7]; [15],15
same,"Plant response rating, Nutsedge, Yellow",[7]; [16],20
same,"Plant response rating, Nutsedge, Yellow",[7]; [17],5
same,"Plant response rating, Nutsedge, Yellow",[7]; [26],5
same,"Plant response rating, Nutsedge, Yellow",[7]; [19],5
same,"Plant response rating, Pigweed",[8]; [20],100
same,Pigweed plant response rating,"[8]; Postemergence, 500 g ai/ha",100
same,"Plant response rating, Pigweed",[8]; [21],100
same,"Plant response rating, Pigweed",[8]; [22],100
COc1nn(-c2cccc(F)c2)nc1Cc1ccnc(C(F)(F)F)c1 [Compound 139],"Foxtail, Giant plant response rating",[1]; [9],90
same,"Foxtail, Giant plant response rating",[1]; [10],100
same,"Plant response rating, Foxtail, Giant",[1]; [11],100
same,"Plant response rating, Foxtail, Giant",[1]; [12],100
same,"Plant response rating, Soybean",soybean (Glycine max); [13],40
same,"Plant response rating, Soybean",soybean (Glycine max); [14],40
same,"Plant response rating, Soybean",soybean (Glycine max); [15],45
same,"Plant response rating, Soybean",soybean (Glycine max); [16],45
same,"Plant response rating, Soybean",soybean (Glycine max); [17],5
same,"Plant response rating, Soybean",soybean (Glycine max); [18],15
same,"Plant response rating, Soybean",soybean (Glycine max); [26],25
same,"Plant response rating, Soybean",soybean (Glycine max); [19],25
same,"Plant response rating, Wheat",[2]; [20],30
same,Wheat plant response rating,"[2]; Postemergence, 500 g ai/ha",40
same,"Plant response rating, Wheat",[2]; [21],10
same,"Plant response rating, Wheat",[2]; [22],50
same,"Plant response rating, Nightshade",[3]; [23],75
same,"Plant response rating, Nightshade",[3]; [24],85
same,"Plant response rating, Nightshade",[3]; [25],98
same,"Plant response rating, Oat, Wild",wild oat (Avena fatua); [13],40
same,"Plant response rating, Oat, Wild",wild oat (Avena fatua); [14],50
same,"Plant response rating, Oat, Wild",wild oat (Avena fatua); [15],60
same,"Plant response rating, Oat, Wild",wild oat (Avena fatua); [16],80
same,"Plant response rating, Oat, Wild",wild oat (Avena fatua); [17],10
same,"Plant response rating, Oat, Wild",wild oat (Avena fatua); [18],50
same,"Plant response rating, Oat, Wild",wild oat (Avena fatua); [19],85
same,"Plant response rating, Pigweed",[4]; [13],95
same,"Plant response rating, Pigweed",[4]; [14],98
same,"Plant response rating, Pigweed",[4]; [15],98
same,"Plant response rating, Pigweed",[4]; [16],98
same,"Plant response rating, Pigweed",[4]; [17],98
same,"Plant response rating, Pigweed",[4]; [18],98
same,"Plant response rating, Pigweed",[4]; [26],100
same,"Plant response rating, Pigweed",[4]; [19],100
same,"Crabgrass, Large plant response rating",[5]; [9],90
same,"Crabgrass, Large plant response rating",[5]; [10],90
same,"Plant response rating, Crabgrass, Large",[5]; [11],100
same,"Plant response rating, Crabgrass, Large",[5]; [12],100
same,"Plant response rating, Foxtail, Giant",[6]; [13],15
same,"Plant response rating, Foxtail, Giant",[6]; [14],30
same,"Plant response rating, Foxtail, Giant",[6]; [15],40
same,"Plant response rating, Foxtail, Giant",[6]; [16],75
same,"Plant response rating, Foxtail, Giant",[6]; [17],95
same,"Plant response rating, Foxtail, Giant",[6]; [18],100
same,"Plant response rating, Foxtail, Giant",[6]; [26],100
same,"Plant response rating, Foxtail, Giant",[6]; [19],100
same,"Plant response rating, Nutsedge, Yellow",[7]; [13],10
same,"Plant response rating, Nutsedge, Yellow",[7]; [14],10
same,"Plant response rating, Nutsedge, Yellow",[7]; [15],10
same,"Plant response rating, Nutsedge, Yellow",[7]; [16],25
same,"Plant response rating, Nutsedge, Yellow",[7]; [17],0
same,"Plant response rating, Nutsedge, Yellow",[7]; [18],0
same,"Plant response rating, Nutsedge, Yellow",[7]; [26],0
same,"Plant response rating, Nutsedge, Yellow",[7]; [19],5
same,"Plant response rating, Pigweed",[8]; [20],100
same,Pigweed plant response rating,"[8]; Postemergence, 500 g ai/ha",100
same,"Plant response rating, Pigweed",[8]; [21],100
same,"Plant response rating, Pigweed",[8]; [22],100

# Reference: patent US9302999B2, “Substituted triazoles as herbicides” (E. I. DU PONT DE NEMOURS AND COMPANY, priority 2012, dated 2016)
